Usually IC50 stands for the midpoint of a concentration-inhibition curve.

The results in this text go back to patent US8318762B2, “Pyrazolospiroketone acetyl-CoA carboxylase inhibitors” (Pfizer Inc., priority 2008, dated 2012).

One test addresses T1, recombinant human ACC2 (Homo sapiens, UniProt O00763).
T1 construct: a full length Cytomax clone of ACC2 was purchased from Cambridge Bioscience Limited; made in house; host or cells: CHO cells (tetracycline induction, pcDNA5 FRT TO-TOPO); purified on a Softlink Soft Release Avidin column
The test is described as follows: Measurement of human ACC2 inhibition (recombinant hACC2 Transcreener ADP detection FP assay). Conditions: recombinant hACC2 transcreener assay; read-out: rhACC2 IC50. Format: biochemical. In a few lines:
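Purified hACC2 from tetracycline-induced CHO cells (avidin-column eluate) was run in 50 mM HEPES pH7.5, 5 mM MgCl2, 5 mM citrate, 2 mM DTT, 0.5 mg/mL BSA with 30 μM acetyl-CoA, 50 μM ATP and 8 mM KHCO3. Reaction lasted 1 hour at room temperature; ADP was detected by Transcreener FP after another 1 hour.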

The next test deals with rat liver ACC (Rattus norvegicus, UniProt P11497). It counts as biochemical. Conditions: rat liver ACC radio enzymatic assay. How it is done:
[1] Preparation of rat liver ACC. Rat liver ACC was obtained from rat liver based upon standard procedures such as those described by Thampy and Wakil (J. Biol. Chem. 260: 6318-6323; 1985) using the following method.
Male CD rats weighing 150-200 g were fasted for 18-24 hours and then fed a high sucrose diet (AIN-76A rodent diet; Cat # D10001, Research Diets Inc., New Brunswick, N.J.), for 3 days at which time they were sacrificed by CO2 asphyxiation. The livers were removed, rinsed in ice-cold phosphate-buffered saline (PBS), and homogenized in 5 volumes of homogenization buffer (50 mM potassium phosphate, pH 7.5, 10 mM EDTA, 10 mM 2-mercaptoethanol, 2 mM benzamidine, 0.2 mM phenylmethylsulfonylfluoride (PMSF), 5 mg/L each leupeptin, aprotinin, and antitrypsin) in a Waring® blender for 1 minute at 4° C. All subsequent operations were carried out at 4° C. The homogenate has made 3% with respect to polyethylene glycol (PEG) by the addition of 50% PEG solution and centrifuged at 20,000×g for 15 minutes. The resulting supernatant was adjusted to 5% PEG with the addition of 50% PEG solution and stirred for 5 minutes. The pellet (contains ACC activity) was collected by centrifugation at 20,000×g for 20 minutes, rinsed with ice-cold doubly distilled water to remove excess PEG and re-suspended in one-fourth the original homogenate volume with homogenization buffer. Ammonium sulfate (200 g/liter) was slowly added with stirring. After 45 minutes the enzyme is collected by centrifugation for 30 minutes at 20,000×g, re-suspended in 10 mL of 50 mM HEPES, pH7.5, 0.1 mM DTT, 1.0 mM EDTA, and 10% glycerol and desalted on a Sephadex™ G-25 column (2.5 cm×50 cm) (Pharmacia, Piscataway N.J. now GE Healthcare) equilibrated with the same buffer. The desalted enzyme preparation was stored in aliquots at −70° C. Immediately prior to use, frozen rat liver ACC aliquots were thawed, diluted to 500 μg/mL in buffer containing 50 mM HEPES, pH7.5, 10 mM MgCl2, 10 mM tripotassium citrate, 2.0 mM dithiothreitol (DTT), and 0.75 mg/mL fatty acid-free bovine serum albumin (BSA) and pre-incubated at 37° C. for 30 minutes.
[2] Measurement of rat liver ACC inhibition. For measurement of ACC activity and assessment of ACC inhibition, test compounds were dissolved in dimethylsulfoxide (DMSO) and 1 μL aliquots were added to a clear bottom, 96-well plates (Perkin-Elmer PN#1450-514). Control wells contain 1 μL of DMSO alone or 1 μL of high inhibition compound. The enzyme obtained from rat liver as described above was activated in Enzyme buffer at 37° C. for 30 minutes prior to addition to compound plate. All wells receive 75 μL of activated enzyme (1.33×) in a buffer containing 50 mM HEPES, pH7.5, 7.5 mM MgCl2 7.5 mM tripotassium citrate, 2 mM DTT, 50 mg/mL BSA. The activated enzyme was pre-incubated with the cmpd for 10 minute prior to initiating the reaction through the addition of 25 μL of substrate solution containing 50 mM HEPES, pH7.5, 7.5 mM MgCl2 7.5 mM tripotassium citrate, 2 mM DTT, 50 mg/mL BSA, 120 μM acetyl-CoA, 8.0 mM ATP, 38.4 mM KHCO3, and 1.6 mM NaH[^14C]O3 ([…]). The final substrate concentrations in the reaction were 30 μM Acetyl-CoA, 9.6 mM KHCO3, 0.4 mM NaH[^14C]O3, and 2 mM ATP. The reaction was terminated after 10 mins by the addition of 25 μL 3N HCl and the plates were dried at 50° C. for a minimum 20 hrs. 30 μL of water was added to the dried plate and mixed for 5 minutes. 95 μL of Optiphase Supermix liquid scintillation fluid (Perkin Elmer, Waltham, Mass.) was added and the plates are mixed for 20 minutes. Incorporation of ^14C into MCoA was measured using a Wallac Trilux 1450 Microbeta LSC luminescence counter.

In test [1] the test system is malonyl-CoA levels in muscle tissue. Description: Acute in vivo assessment of ACC inhibition: malonyl-CoA levels in muscle tissue (quadriceps). To be noted: relative to chow-fed vehicle control group, % decrease +/- SEM. On the set-up: species or system male Sprague-Dawley Rats. As for the experimental part: (§1) The ACC inhibitory activity of the compound of the present invention can be confirmed in vivo by evaluation of their ability to reduce malonyl-CoA levels in liver and muscle tissue from treated animals.
(§2) Measurement of malonyl-CoA production inhibition in experimental animals. In this method, male Sprague-Dawley Rats, maintained on standard chow and water ad libitum (225-275 g), were randomized prior to the study. Animals were either fed, or fasted for 18 hours prior to the beginning of the experiment. Two hours into the light cycle the animals were orally dosed with a volume of 5 mL/kg, (0.5% methyl cellulose; vehicle) or with the appropriate compound (prepared in vehicle). Fed vehicle controls were included to determine baseline tissue malonyl-CoA levels while fasted animals were included to determine the effect fasting had on malonyl-CoA levels. One hour after compound administration the animals were asphyxiated with CO2 and the tissues were removed. Specifically, blood was collected by cardiac puncture and placed into BD Microtainer tubes containing EDTA (BD Biosciences, NJ), mixed, and placed on ice. Plasma was used to determine drug exposure. Liver and quadriceps were removed, immediately freeze-clamped, wrapped in foil and stored in liquid nitrogen.
(§3) Tissues were pulverized under liquid N2 to ensure uniformity in sampling. Malonyl-CoA was extracted from the tissue (150-200 mg) with 5 volumes 10% […] in Lysing Matrix A (MP Biomedicals, PN 6910) in a FastPrep FP120 (Thermo Scientific, speed=5.5; for 45 seconds). The supernatant containing malonyl-CoA was removed from the cell debris after centrifugation at 15000×g for 30 minutes (Eppendorf Centrifuge 5402). Samples were stably frozen at −80 C until analysis is completed.
(§4) Analysis of malonyl CoA levels in liver and muscle tissue can be evaluated using the following methodology.
(§5) The method utilizes the following materials: Malonyl-CoA tetralithium salt and malonyl-^13C3-CoA trilithium salt which were purchased from Isotec (Miamisburg, Ohio, USA), sodium perchlorate (Sigma, cat no. 410241), trichloroacetic acid (ACROS, cat no. 42145), phosphoric acid (J. T. Baker, cat no. 0260-01), ammonium formate (Fluke, cat no. 17843), methanol (HPLC grade, J. T. Baker, cat no. 9093-33), and water (HPLC grade, J. T. Baker, 4218-03) were used to make the necessary mobile phases. Strata-X on-line solid phase extraction columns, 25 μm, 20 mm×2.0 mm I.D (cat no. 00M-S033-B0-CB) were obtained from Phenomenex (Torrance, Calif., USA). SunFire C18 reversed-phase columns, 3.5 μm, 100 mm×3.0 mm I.D. (cat no. 186002543) were purchased from Waters Corporation (Milford, Mass., USA).
(§6) This method may be performed utilizing the following equipment. Two-dimensional chromatography using an Agilent 1100 binary pump, an Agilent 1100 quaternary pump and two Valco Cheminert 6-port two position valves. Samples were introduced via a LEAP HTC PAL auto sampler with Peltier cooled stack maintained at 10° C. and a 20 μL sampling loop. The needle wash solutions for the autosampler are 10% trichloroacetic acid in water (w/v) for Wash 1 and 90:10 methanol:water for Wash 2. The analytical column (Sunfire) was maintained at 35° C. using a MicroTech Scientific Micro-LC Column Oven. The eluant was analyzed on an ABI Sciex API3000 triple quadrupole mass spectrometer with Turbo Ion Spray.
(§7) Two-dimensional chromatography was performed in parallel using distinct gradient elution conditions for on-line solid phase extraction and reversed-phase chromatography. The general design of the method was such that the first dimension was utilized for sample clean-up and capture of the analyte of interest followed by a brief coupling of both dimensions for elution from the first dimension onto the second dimension. The dimensions were subsequently uncoupled allowing for gradient elution of the analyte from the second dimension for quantification while simultaneously preparing the first dimension for the next sample in the sequence. […]

Test [2] relates to malonyl-CoA levels in liver. Description: Acute in vivo assessment of ACC inhibition: malonyl-CoA levels in liver tissue. Also noted: species or system male Sprague-Dawley Rats. Conditions: relative to chow-fed vehicle control group, % decrease +/- SEM. How it is done: as §1, §2, §3, §4, §5, §6, §7

T1 sequence (O00763 whole entry): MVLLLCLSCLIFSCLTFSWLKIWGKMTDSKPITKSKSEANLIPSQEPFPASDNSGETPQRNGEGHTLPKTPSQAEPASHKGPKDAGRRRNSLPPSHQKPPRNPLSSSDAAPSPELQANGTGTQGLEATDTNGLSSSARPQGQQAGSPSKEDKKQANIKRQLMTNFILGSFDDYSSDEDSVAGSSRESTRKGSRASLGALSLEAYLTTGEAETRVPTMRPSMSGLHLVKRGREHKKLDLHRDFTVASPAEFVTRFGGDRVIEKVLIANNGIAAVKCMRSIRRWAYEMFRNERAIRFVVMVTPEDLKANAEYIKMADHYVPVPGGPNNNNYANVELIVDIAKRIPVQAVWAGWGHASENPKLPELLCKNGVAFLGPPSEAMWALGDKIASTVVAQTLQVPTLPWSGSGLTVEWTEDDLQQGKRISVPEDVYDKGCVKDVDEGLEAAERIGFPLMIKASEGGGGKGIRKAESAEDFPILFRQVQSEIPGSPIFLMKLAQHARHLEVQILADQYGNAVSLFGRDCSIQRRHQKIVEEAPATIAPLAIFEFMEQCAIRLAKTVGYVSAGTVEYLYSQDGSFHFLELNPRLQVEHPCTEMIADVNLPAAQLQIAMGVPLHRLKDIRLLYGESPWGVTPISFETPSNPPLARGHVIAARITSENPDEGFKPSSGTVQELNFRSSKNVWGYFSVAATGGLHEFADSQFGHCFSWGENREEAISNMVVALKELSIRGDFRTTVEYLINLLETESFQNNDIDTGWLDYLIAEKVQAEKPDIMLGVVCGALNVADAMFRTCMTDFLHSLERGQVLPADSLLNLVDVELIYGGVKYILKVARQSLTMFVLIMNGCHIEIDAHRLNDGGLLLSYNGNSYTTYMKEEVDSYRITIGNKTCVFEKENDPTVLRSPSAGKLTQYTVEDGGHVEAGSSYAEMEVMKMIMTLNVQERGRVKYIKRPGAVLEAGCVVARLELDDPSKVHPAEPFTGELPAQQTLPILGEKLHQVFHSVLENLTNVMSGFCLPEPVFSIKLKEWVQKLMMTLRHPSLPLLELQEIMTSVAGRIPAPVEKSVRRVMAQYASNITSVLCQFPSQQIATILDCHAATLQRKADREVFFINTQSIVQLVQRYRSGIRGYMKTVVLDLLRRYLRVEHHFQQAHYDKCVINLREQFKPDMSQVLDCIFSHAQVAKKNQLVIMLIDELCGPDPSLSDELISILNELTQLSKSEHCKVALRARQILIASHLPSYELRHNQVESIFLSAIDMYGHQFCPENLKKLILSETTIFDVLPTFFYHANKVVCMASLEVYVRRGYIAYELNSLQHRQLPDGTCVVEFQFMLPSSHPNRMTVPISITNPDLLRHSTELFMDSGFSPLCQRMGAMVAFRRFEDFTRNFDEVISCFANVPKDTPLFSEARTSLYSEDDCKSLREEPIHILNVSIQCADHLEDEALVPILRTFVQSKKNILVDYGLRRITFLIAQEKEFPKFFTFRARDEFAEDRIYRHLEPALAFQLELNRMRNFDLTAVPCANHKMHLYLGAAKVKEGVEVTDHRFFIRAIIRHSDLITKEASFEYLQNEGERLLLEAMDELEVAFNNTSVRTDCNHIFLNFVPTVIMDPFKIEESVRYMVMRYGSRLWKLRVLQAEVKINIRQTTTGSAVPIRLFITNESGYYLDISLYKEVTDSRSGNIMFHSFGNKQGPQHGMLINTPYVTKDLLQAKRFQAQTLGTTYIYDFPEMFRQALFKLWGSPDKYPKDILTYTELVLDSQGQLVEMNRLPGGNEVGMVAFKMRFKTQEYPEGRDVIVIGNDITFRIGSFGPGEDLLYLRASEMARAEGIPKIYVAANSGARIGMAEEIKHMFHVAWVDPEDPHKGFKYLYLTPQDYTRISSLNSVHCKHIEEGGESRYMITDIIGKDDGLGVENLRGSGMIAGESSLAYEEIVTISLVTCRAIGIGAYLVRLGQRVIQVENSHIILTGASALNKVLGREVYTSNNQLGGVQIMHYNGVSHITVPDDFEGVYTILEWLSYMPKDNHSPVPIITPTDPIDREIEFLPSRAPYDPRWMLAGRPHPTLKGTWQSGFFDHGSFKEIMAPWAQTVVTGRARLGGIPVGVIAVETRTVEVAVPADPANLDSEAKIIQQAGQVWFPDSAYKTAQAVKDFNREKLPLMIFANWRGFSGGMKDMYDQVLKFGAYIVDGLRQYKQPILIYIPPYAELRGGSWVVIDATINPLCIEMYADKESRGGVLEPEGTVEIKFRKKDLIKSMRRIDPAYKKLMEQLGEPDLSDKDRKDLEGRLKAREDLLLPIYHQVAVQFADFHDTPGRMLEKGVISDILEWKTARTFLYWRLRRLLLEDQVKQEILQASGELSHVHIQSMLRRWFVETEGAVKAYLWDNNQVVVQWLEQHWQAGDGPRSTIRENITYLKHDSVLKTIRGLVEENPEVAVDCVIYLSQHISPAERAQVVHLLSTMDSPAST

`Cc1n[nH]c2c(C)cc(C(=O)N3CCC4(CC3)CC(=O)c3nn(C5CCOC5)c(C)c3O4)cc12` (centres unmarked) [1.015]: the concentration for half-maximal inhibition (IC50) was 20 nM at recombinant human ACC2 and 21 nM against rat liver ACC.
With `Cc1cc(C(=O)N2CCC3(CC2)CC(=O)c2nn(C(C)C)cc2O3)cc2cn[nH]c12` [1.022], the values for the half-inhibitory concentration (IC50) at recombinant human ACC2 and against rat liver ACC were 28 nM and 22 nM, respectively.
Taken in the same sequence, the figures for `CCn1nc2c(c1C)OC1(CCN(C(=O)c3cc(C)c4[nH]ncc4c3)CC1)CC2=O` [1.023] were 31 nM and 28 nM.
Taken in the same sequence, the figures for `CCCn1cc2c(n1)C(=O)CC1(CCN(C(=O)c3cc(C)c4[nH]ncc4c3)CC1)O2` [1.027] were 43 nM and 48 nM.
For `Cc1cc(C(=O)N2CCC3(CC2)CC(=O)c2nn(C4CCCC4)cc2O3)cc2cn[nH]c12` [1.038] the same measures were 9 nM and 14 nM.
On to `Cc1cc(C(=O)N2CCC3(CC2)CC(=O)c2nn(C4CCC4)cc2O3)cc2cn[nH]c12` [1.039], for which the IC50 was determined as 13 nM on recombinant human ACC2 and 15 nM at rat liver ACC.
As to `CC(C)(C)n1cc2c(n1)C(=O)CC1(CCN(C(=O)c3ccc4[nH]ncc4c3)CC1)O2` [1.074], the “Percent decrease in Muscle Malonyl-CoA (quadriceps)” value in test [1] (dose 1 mg/kg) is 2.34 (5.44) %; in test [1] (dose 3 mg/kg) it was 24.42 (6.83) %; in test [1] (dose 10 mg/kg) it was 49.00 (2.40) %; in test [1] (dose 30 mg/kg), 57.06 (2.04) %. For the same compound, the midpoint of inhibition against rat liver ACC, the IC50, lay at 17 nM. The “Percent decrease in Liver Malonyl-CoA” value in test [2] (dose 1 mg/kg) is 34.97 (2.59) %; in test [2] (dose 3 mg/kg) it was 53.97 (1.19) %; in test [2] (dose 10 mg/kg) it was 70.74 (3.49) %; in test [2] (dose 30 mg/kg), 63.60 (3.57) %.
As for `CCOc1cc(C(=O)N2CCC3(CC2)CC(=O)c2nn(CC)c(C)c2O3)cc2c(CC)n[nH]c12` [1.119], the half-inhibitory concentration (IC50) on recombinant human ACC2 is 18 nM; against rat liver ACC it was 13 nM.
For `CCOc1cc(C(=O)N2CCC3(CC2)CC(=O)c2nn(C(C)C)cc2O3)cc2cn[nH]c12` [1.123] the same measures were 14 nM and 16 nM.
On to `CCC(C)n1nc2c(c1C)OC1(CCN(C(=O)c3ccc4[nH]nc(C)c4c3)CC1)CC2=O` (centres unmarked) [1.137], for which the IC50 is 9 nM at recombinant human ACC2 and 17 nM at rat liver ACC.
Turning to `CCC(C)n1cc2c(n1)C(=O)CC1(CCN(C(=O)c3ccc4[nH]nc(C)c4c3)CC1)O2` (centres unmarked) [1.141], the IC50 at recombinant human ACC2 was found to be 19 nM; at rat liver ACC it was 32 nM.
Taken in the same sequence, the figures for `Cc1c(C(=O)N2CCC3(CC2)CC(=O)c2nn(C(C)(C)C)cc2O3)ccc2[nH]ncc12` [1.147] were 49 nM and 15 nM.
For `Cc1nc2c(C)cc(C(=O)N3CCC4(CC3)CC(=O)c3nn(C(C)(C)C)cc3O4)cc2[nH]1` [3.003] the same measures were 4 nM and 10 nM.
For `CCn1nc2c(c1C)OC1(CCN(C(=O)c3cc(C)c4[nH]cc(C)c4c3)CC1)CC2=O` [4.001], the IC50 at recombinant human ACC2 is 29 nM; at rat liver ACC it was 9 nM.
As for `CC(C)n1cc2c(n1)C(=O)CC1(CCN(C(=O)c3ccc4cn(C)nc4c3)CC1)O2` [5.002], the IC50 at recombinant human ACC2 was determined as 147 nM; at rat liver ACC, 201 nM.
Regarding `COc1ccc2cc(C(=O)N3CCC4(CC3)CC(=O)c3nn(C(C)(C)C)cc3O4)ccc2c1` [6.004], the results for the IC50 on recombinant human ACC2 and on rat liver ACC were 38 nM and 77 nM, respectively.
For `CC(C)(C)n1cc2c(n1)C(=O)CC1(CCN(C(=O)c3ccc4ncsc4c3)CC1)O2` [10.002] the same measures were 25 nM and 46 nM.
